The text below walks through data of patent US9902716B2, “Fluorinated benzofuranyl-pyrimidine derivatives containing a sulfone group” (Bayer Pharma Aktiengesellschaft, priority 2014, dated 2018).

In test [1] the target is T1, CDK2/CycE (Homo sapiens, UniProt P24941).
T1 construct: GST; purchased ProQinase GmbH (Freiburg, Germany); host or cells: insect cells (Sf9)
Briefly: CDK2/CycE high ATP kinase assay (Method 2b, TR-FRET). The test is classed as biochemical. As to conditions: 2 mM ATP. On the procedure:
2b. CDK2/CycE High ATP Kinase Assay:
CDK2/CycE-inhibitory activity of compounds of the present invention at 2 mM adenosine-tri-phosphate (ATP) was quantified employing the CDK2/CycE TR-FRET (TR-FRET=Time Resolved Fluorescence Energy Transfer) assay as described in the following paragraphs.
Recombinant fusion proteins of GST and human CDK2 and of GST and human CycE, expressed in insect cells (Sf9) and purified by Glutathion-Sepharose affinity chromatography, were purchase from ProQinase GmbH (Freiburg, Germany). As substrate for the kinase reaction biotinylated peptide biotin-Ttds-YISPLKSPYKISEG (C-terminus in amid form) was used which can be purchased e.g. form the company JERINI peptide technologies (Berlin, Germany).
(§1) For the assay 50 nl of a 100 fold concentrated solution of the test compound in DMSO was pipetted into a black low volume 384 well microtiter plate (Greiner Bio-One, Frickenhausen, Germany), 2 μl of a solution of CDK2/CycE in aqueous assay buffer [50 mM Tris/HCl pH 8.0, 10 mM MgCl2, 1.0 mM dithiothreitol, 0.1 mM sodium ortho-vanadate, 0.01% (v/v) Nonidet-P40 (Sigma)] were added and the mixture was incubated for 15 min at 22° C. to allow pre-binding of the test compounds to the enzyme before the start of the kinase reaction. Then the kinase reaction was started by the addition of 3 μl of a solution ATP (3.33 mM=> final conc. in the 5 μl assay volume is 2 mM) and substrate (1.25 μM=> final conc. in the 5 μl assay volume is 0.75 μM) in assay buffer and the resulting mixture was incubated for a reaction time of 25 min at 22° C. […]
The resulting mixture was incubated 1 h at 22° C. to allow the formation of complex between the phosphorylated biotinylated peptide and the detection reagents. Subsequently the amount of phosphorylated substrate was evaluated by measurement of the resonance energy transfer from the Euchelate to the streptavidine-XL. Therefore, the fluorescence emissions at 620 nm and 665 nm after excitation at 350 nm wer measured in a TR-FRET reader, e.g. a Rubystar (BMG Labtechnologies, Offenburg, Germany) or a Viewlux (Perkin-Elmer). […]
Background: TR-FRET usually uses a lanthanide donor and a delayed reading to cut background.

Test [2] addresses T1, CDK2/CycE. Briefly: CDK2/CycE kinase assay (Method 2a, TR-FRET). The test is classed as biochemical. As to conditions: 10 μM ATP.
From the text: 2a. CDK2/CycE Kinase Assay:
CDK2/CycE-inhibitory activity of compounds of the present invention was quantified employing the CDK2/CycE TR-FRET assay as described in the following paragraphs:
Recombinant fusion proteins of GST and human CDK2 and of GST and human CycE, expressed in insect cells (Sf9) and purified by Glutathion-Sepharose affinity chromatography, were purchased from ProQinase GmbH (Freiburg, Germany). As substrate for the kinase reaction biotinylated peptide biotin-Ttds-YISPLKSPYKISEG (C-terminus in amid form) was used which can be purchased e.g. form the company JERINI Peptide Technologies (Berlin, Germany).
as §1, with “of adenosine-tri-phosphate (ATP, 16.7 μM=>” for “ATP (3.33 mM=>”, “10 μM)” for “2 mM)”
The resulting mixture was incubated 1 h at 22° C. to allow the formation of complex between the phosphorylated biotinylated peptide and the detection reagents. Subsequently the amount of phosphorylated substrate was evaluated by measurement of the resonance energy transfer from the Euchelate to the streptavidine-XL. Therefore, the fluorescence emissions at 620 nm and 665 nm after excitation at 350 nm was measured in a TR-FRET reader, e.g. a Rubystar (BMG Labtechnologies, Offenburg, Germany) or a Viewlux (Perkin-Elmer). […]

By IC50 is commonly meant the concentration that inhibits the measured activity by half. Read a high IC50 as weaker potency in that assay. As for `Cc1cc(CS(C)(=O)=O)cc(Nc2ncc(F)c(-c3ccc(F)c4ccoc34)n2)c1` [Example 4, 5-Fluoro-4-(4-fluoro-1-benzofuran-7-yl)-N-{3-methyl-5-[(methylsulfonyl)methyl]-phenyl}pyrimidin-2-amine], the IC50 turned out to be 8560 nM at CDK2/CycE [1] and 57 nM against CDK2/CycE [2].

As to `CCS(=O)(=O)Cc1cccc(Nc2ncc(F)c(-c3ccc(F)c4ccoc34)n2)c1` [Example 2, N-{3-[(Ethylsulfonyl)methyl]phenyl}-5-fluoro-4-(4-fluoro-1-benzofuran-7-yl)pyrimidin-2-amine], the IC50 against CDK2/CycE [1] amounted to 917 nM; against CDK2/CycE [2] it was 112 nM.

For `CS(=O)(=O)Cc1cccc(Nc2ncc(F)c(-c3ccc(F)c4ccoc34)n2)c1` [Example 1, 5-Fluoro-4-(4-fluoro-1-benzofuran-7-yl)-N-{3-[(methylsulfonyl)methyl]-phenyl}pyrimidin-2-amine], the IC50 against CDK2/CycE [1] turned out to be 1320 nM; on CDK2/CycE [2], 175 nM.
